The results in this text go back to patent US10308602B2, “Organoselenium compounds, method for producing same, and pharmaceutical uses thereof in particular as antitumor agents” (TETRAHEDRON, priority 2014, dated 2019).

Molecules are shown by their SMILES. pIC50: −log10 of the molar value.

Holding throughout (format): cell-based
Assay [1] relates to LS174T cells (colon). The experiment in a line: Cytotoxicity, WST-1 cell viability test, LS174T. As to conditions: Homo sapiens, after 96 hours of treatment, read-out: Concentration decreasing by 50% the cell viability. The procedure:
(§1) Eight cell lines originating from different types of cancer were used: PC3 and DU145 (prostate), HT-29 and LS-174T (colon), Hep G2 (liver), MCF-7 (breast), MIA PaCa-2 and PANC-1 (pancreas).
(§2) The cells are cultured in the specific culture medium described in Table II, at 37° C., 5% CO2, according to the operating procedures that are well known to the person skilled in the art.
(§3) After thawing and amplification of the cancer cells in the appropriate culture medium (described in 1.2.), 96-well plates are inoculated with these cells and incubated or not incubated (controls) in their respective culture medium, in the presence of the compounds to be tested at 10, 50, 100, 250 and 500 μM.
(§4) After 96 h of incubation, each 96-well plate is analyzed in order to measure the viability of the cells using a colorimetric test with WST-1.
(In general: Formazan colour is commonly taken as a measure of viable cells.)

Assay [2] has as its system DU145 cells (prostate). The experiment in a line: Cytotoxicity, WST-1 cell viability test, DU145. As to conditions: Homo sapiens, DU-145, after 96 hours of treatment, read-out: Concentration decreasing by 50% the cell viability. On the procedure: as §1, §2, §3, §4
Assay [3] has as its system HT-29 cells (colon). The experiment in a line: Cytotoxicity, WST-1 cell viability test, HT-29. The following applies: Homo sapiens, after 96 hours of treatment, read-out: Concentration decreasing by 50% the cell viability. The procedure: as §1, §2, §3, §4
Assay [4] deals with Hep G2 cells (liver). The experiment in a line: Cytotoxicity, WST-1 cell viability test, Hep G2. The following applies: Homo sapiens, HepG2, after 96 hours of treatment, read-out: Concentration decreasing by 50% the cell viability. On the procedure:
as §1, §2, §3, §4

For assay [5], the system named is PC3 cells (prostate). The experiment in a line: Cytotoxicity, WST-1 cell viability test, PC3. As to conditions: Homo sapiens, PC-3, after 96 hours of treatment, read-out: Concentration decreasing by 50% the cell viability. The procedure: as §1, §2, §3, §4
Assay [6] has as its system MIA PaCa-2 cells (pancreas). The experiment in a line: Cytotoxicity, WST-1 cell viability test, MIA PaCa-2. The following applies: Homo sapiens, after 96 hours of treatment, read-out: Concentration decreasing by 50% the cell viability. On the procedure: as §1, §2, §3, §4
Assay [7] concerns MCF-7 cells (breast). The experiment in a line: Cytotoxicity, WST-1 cell viability test, MCF-7. The following applies: Homo sapiens, MCF7, after 96 hours of treatment, read-out: Concentration decreasing by 50% the cell viability. The procedure:
as §1, §2, §3, §4

Assay [8] has as its system PANC-1 cells (pancreas). The experiment in a line: Cytotoxicity, WST-1 cell viability test, PANC-1. The following applies: Homo sapiens, after 96 hours of treatment, read-out: Concentration decreasing by 50% the cell viability. On the procedure:
as §1, §2, §3, §4

Turning to `C[Se]CC(O)C(=O)O` (stereo not shown) [Compound 10, 2-hydroxy-3-(methylseleno)propanoic acid], the pIC50 in assay [1] is 3.37; in assay [2] it was 3.41; in assay [3], 3.48.

For `CCCCCCCCCCCC(=O)OC(C[Se]C)C(=O)O` (stereo not shown) [Compound 38, 2-(dodecanoyloxy)-3-(methylseleno)propanoic acid], the pIC50 is 3.58 in assay [4]; 3.70 in assay [5]; 3.51 in assay [6]; 3.95 in assay [1]; 3.77 in assay [2]; 3.67 in assay [7]. Also, the pIC50 in assay [8] was 3.60; in assay [3] it was 3.78.

With `CCOC(=O)C(O)C[Se]C` (stereo not shown) [Compound 4, ethyl ester of 2-hydroxy-3-(methylseleno)propanoic acid], the pIC50 in assay [1] is 3.47; in assay [2] it was 3.32.
